13 molecules from US20240247253A1, “PRODUCTION METHOD OF POLYPEPTIDE, TAG, EXPRESSION VECTOR, EVALUATION METHOD OF POLYPEPTIDE, PRODUCTION METHOD OF NUCLEIC ACID DISPLAY LIBRARY, AND SCREENING METHOD” (FUJIFILM Corporation, priority 2021, published 2024) can be followed below.

The subject of assay [1] is cell-free peptide synthesis system derived from Escherichia coli. Kind of assay: Cell-free biosynthesis of the integrin binding peptide fusion protein with N-terminal tag, 1 hour reaction, amount measured by ELISA. The settings on record: relative value, control example without tag = 1; fusion protein SEQ ID NO: 5; 37° C. for 1 hour; average of two measurements. It counts as biochemical. An excerpt:
In the cell-free peptide synthesis system derived from Escherichia coli, the effect of the VKKX tag on the biosynthesis amount of the polypeptide was examined. As a polypeptide to be biosynthesized, an integrin binding peptide containing cysteine and chloroacetyl lysine was selected. In this polypeptide, a thiol group of cysteine and a chloroacetyl group of chloroacetyl lysine spontaneously form a thioether bond to become a cyclic polypeptide.
A fusion protein in which an integrin binding peptide, a Myc tag, and a HiBiT tag were linked in this order was designed. As a spacer, Gly-Gly-Ser was inserted between the integrin binding peptide and the Myc tag and between the Myc tag and the HiBiT tag. The amino acid sequence of this fusion protein is SEQ ID NO: 5, and the base sequence encoding this fusion protein is SEQ ID NO: 6. In SEQ ID NO: 5, the integrin binding peptide ranges to the amino acid at the twelfth position (that is, alanine) from an N-terminal, and the amino acid at eleventh position from the N-terminal is chloroacetyl lysine. The triplet TAG at the positions 31 to 33 from the 5′ terminal of the base sequence set forth in SEQ ID NO: 6 was assigned to the codon of chloroacetyl lysine. The end of the base sequence set forth in SEQ ID NO: 6 is the stop codon TAA.
A base sequence encoding a tagged fusion protein in which methionine, a VKKX tag (any of SEQ ID nOs: 7 to 52), and a fusion protein (SEQ ID NO: 5) were linked in this order was designed. In this base sequence, a base sequence (any of SEQ ID nOs: 53 to 98) encoding a VKKX tag is arranged immediately after the start codon ATG, and a base sequence encoding a fusion protein immediately after the base sequence (SEQ ID NO: 6) encoding the VKKX tag is arranged.
As a control example for evaluating the effect of the VKKX tag, a base sequence in which a base sequence (SEQ ID NO: 6) encoding a fusion protein arranged immediately after the start codon ATG was designed.
In order to translate chloroacetyl lysine which is an unnatural amino acid, a tRNA in which the anticodon was CUA and paired with the UAG codon of mRNA was prepared. This tRNA was aminoacylated with an N-chloroacetyl lysine hosphoro 2′ deoxyribocytidylylriboadenosine (pdCpA) ester. This aminoacyl tRNA is referred to as an Aminoacyl tRNA (1).
(§1) The cell-free biosynthesis of the polypeptide was carried out in a translation solution containing a template DNA, PUREfrex 2.0 (GeneFrontier, PF201-0.25-5), and Aminoacyl tRNA (1). 1.25 μL (62.5 ng) of the template DNA prepared to 50 ng/μL, 2.5 μL of PUREfrex 2.0 Solution I, 0.25 μL of Solution II, 0.5 μL of Solution III, and 0.5 μL of Aminoacyl tRNA (1) were mixed and mixture was subjected to a reaction at 37° ° C. for 1 hour.
The amount of the biosynthesized polypeptide was measured by ELISA. 50 ng of Recombinant Human Integrin αVβ3 (R&D systems, 3050-AV-050) was immobilized in each well of a 96-well plate and blocked with Blocker Casein in PBS (Thermo, 37528), and then a cell-free biosynthesis solution diluted with Can Get Signal Immunoreaction Enhancer Solution I (TOYOBO, NKB-101) containing 5 mmol/L MgCl2 was added thereto, and the mixture was subjected to a reaction at room temperature for 3 hours. After washing with 5 mmol/L MgCl2/0.05% Tween 20-containing phosphate buffered saline (PBS), an anti-Myc antibody (Cell Signaling, 14038S) diluted with Can Get Signal Immunoreaction Enhancer Solution II (TOYOBO, NKB-101) was added thereto, and the mixture was subjected to a reaction at room temperature for 2 hours. After washing with PBS containing 5 mmol/L MgCl2/0.05% Tween 20, Super Signal ELISA Femto Substrate (Thermo, 37075) was added thereto, and the luminescence was measured. The amount of the fusion protein in the cell-free biosynthesis solution was calculated based on a calibration curve created from the fusion protein having a known concentration. The luminescence measurement was performed twice, and the average value of the amounts of the fusion protein was calculated. […]
Background: ELISA stands for enzyme-linked immunosorbent assay.

Assay [2] has the same test system. In words: Cell-free biosynthesis of the integrin binding peptide fusion protein with tag, reaction time 10 minutes, ELISA. Type of assay: biochemical. The settings on record: relative value, control without tag = 1; reaction time 10 minutes; fusion protein SEQ ID NO: 5; SKIK encoded by SEQ ID NO: 110. As to the method: as §1
The amount of the biosynthesized polypeptide was measured by ELISA. 50 ng of Recombinant Human Integrin αVβ3 (R&D systems, 3050-AV-050) was immobilized in each well of a 96-well plate and blocked with Blocker Casein in PBS (Thermo, 37528), and then a cell-free biosynthesis solution diluted with Can Get Signal Immunoreaction Enhancer Solution I (TOYOBO, NKB-101) containing 5 mmol/L MgCl2 was added thereto, and the mixture was subjected to a reaction at room temperature for 3 hours. After washing with 5 mmol/L MgCl2/0.05% Tween 20-containing phosphate buffered saline (PBS), an anti-Myc antibody (Cell Signaling, 14038S) diluted with Can Get Signal Immunoreaction Enhancer Solution II (TOYOBO, NKB-101) was added thereto, and the mixture was subjected to a reaction at room temperature for 2 hours. After washing with PBS containing 5 mmol/L MgCl2/0.05% Tween 20, Super Signal ELISA Femto Substrate (Thermo, 37075) was added thereto, and the luminescence was measured. The amount of the fusion protein in the cell-free biosynthesis solution was calculated based on a calibration curve created from the fusion protein having a known concentration. The luminescence measurement was performed twice, and the average value of the amounts of the fusion protein was calculated. Table 2-1 and Table 2-2 show relative values of the biosynthesis amounts of respective fusion proteins in a case where the amount of the fusion protein of the control example was set to the reference value 1.
As a comparative control, a SKIK tag represented by SEQ ID NO: 107 was selected. The polypeptide to be biosynthesized is the fusion protein containing the integrin binding peptide, as in Example 1.
Using a template DNA including DNA sequences (SEQ ID NOs: 73 to 98) encoding VKKX tags represented by SEQ ID NOs: 27 to 52 produced in Example 1, and a DNA sequence (SEQ ID NO: 110) encoding a SKIK tag represented by SEQ ID NO: 107 produced in Example 2, the biosynthesis reaction was performed in the same manner as in Example 1 by setting the reaction time to 10 minutes. In the same manner in Example 1, the fusion protein was expressed by the cell-free peptide synthesis system and quantified by ELISA. The measurement was performed twice, and the average value of the amounts of the fusion protein was calculated. […] As control example used in Example 1, the control example of the reference value 1 has a form in which the base sequence (SEQ ID NO: 6) encoding the fusion protein is arranged immediately after the start codon ATG.

Assay [3] deals with T1, Recombinant Human Integrin αVβ3 (R&D systems, 3050-AV-050) (human, UniProt P06756 31-992; P05106 27-718).
T1 construct: Bought heterodimer
In words: SPR (Biacore T-100): peptide immobilized on CM5 chip, integrin αVβ3 injected at 10, 30, 100, 300 nmol/L, 5 mmol/L MgCl2. As to the method:
In addition, as a comparative control, the binding ability (Kd value) of the integrin binding peptide was measured by the SPR method. An integrin binding peptide (SEQ ID NO: 126) was chemically synthesized and immobilized on a CM5 chip (Cytiva, BR100530) by an amine coupling method. The binding ability of the immobilized integrin binding peptide to Recombinant Human Integrin αVβ3 (R&D systems, 3050-AV-050) was measured using Biacore T-100 (Cytiva). As the measurement buffer, an HBS-N buffer (Cytiva, BR100670) in which MgCl₂ was added such that the final concentration was 5 mmol/L, and integrin was added thereto at a concentration of 10, 30, 100, or 300 nmol/L for 10 minutes. The CM5 chip was regenerated and used by repeating the addition of 500 mmol/L EDTA for 10 minutes twice.
A general note: SPR reads the build-up and loss of mass on a sensor chip optically.

Ends that are not written are not given here. * marks the point of attachment. ClAc = O=C(CCl)*

T1 sequence (P06756 31-992 limits assumed, chain 1 of 2): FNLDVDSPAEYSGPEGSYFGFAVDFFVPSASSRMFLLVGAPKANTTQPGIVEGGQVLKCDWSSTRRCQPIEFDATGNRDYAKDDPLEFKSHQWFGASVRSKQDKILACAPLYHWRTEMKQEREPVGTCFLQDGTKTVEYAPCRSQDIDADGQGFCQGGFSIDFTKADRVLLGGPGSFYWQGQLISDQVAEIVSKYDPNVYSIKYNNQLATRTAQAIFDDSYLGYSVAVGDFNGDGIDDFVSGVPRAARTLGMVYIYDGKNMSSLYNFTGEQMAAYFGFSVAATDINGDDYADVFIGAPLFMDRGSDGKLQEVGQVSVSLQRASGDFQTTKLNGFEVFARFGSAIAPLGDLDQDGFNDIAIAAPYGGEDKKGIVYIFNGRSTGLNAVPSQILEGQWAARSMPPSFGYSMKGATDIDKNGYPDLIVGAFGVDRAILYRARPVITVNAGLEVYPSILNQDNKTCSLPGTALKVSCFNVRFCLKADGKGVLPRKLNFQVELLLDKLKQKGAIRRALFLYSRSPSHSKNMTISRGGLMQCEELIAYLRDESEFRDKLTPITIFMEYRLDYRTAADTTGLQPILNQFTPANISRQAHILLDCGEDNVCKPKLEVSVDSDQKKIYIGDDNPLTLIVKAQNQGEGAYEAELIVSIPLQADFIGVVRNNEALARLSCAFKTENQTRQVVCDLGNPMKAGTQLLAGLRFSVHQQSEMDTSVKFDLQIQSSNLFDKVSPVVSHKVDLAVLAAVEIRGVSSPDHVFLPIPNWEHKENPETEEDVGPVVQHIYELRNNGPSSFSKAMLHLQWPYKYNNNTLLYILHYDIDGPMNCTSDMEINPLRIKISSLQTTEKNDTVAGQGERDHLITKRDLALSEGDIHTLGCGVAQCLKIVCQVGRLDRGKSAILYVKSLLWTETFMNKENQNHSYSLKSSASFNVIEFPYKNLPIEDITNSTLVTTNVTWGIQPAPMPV
T1 sequence (P05106 27-718 limits assumed, chain 2 of 2): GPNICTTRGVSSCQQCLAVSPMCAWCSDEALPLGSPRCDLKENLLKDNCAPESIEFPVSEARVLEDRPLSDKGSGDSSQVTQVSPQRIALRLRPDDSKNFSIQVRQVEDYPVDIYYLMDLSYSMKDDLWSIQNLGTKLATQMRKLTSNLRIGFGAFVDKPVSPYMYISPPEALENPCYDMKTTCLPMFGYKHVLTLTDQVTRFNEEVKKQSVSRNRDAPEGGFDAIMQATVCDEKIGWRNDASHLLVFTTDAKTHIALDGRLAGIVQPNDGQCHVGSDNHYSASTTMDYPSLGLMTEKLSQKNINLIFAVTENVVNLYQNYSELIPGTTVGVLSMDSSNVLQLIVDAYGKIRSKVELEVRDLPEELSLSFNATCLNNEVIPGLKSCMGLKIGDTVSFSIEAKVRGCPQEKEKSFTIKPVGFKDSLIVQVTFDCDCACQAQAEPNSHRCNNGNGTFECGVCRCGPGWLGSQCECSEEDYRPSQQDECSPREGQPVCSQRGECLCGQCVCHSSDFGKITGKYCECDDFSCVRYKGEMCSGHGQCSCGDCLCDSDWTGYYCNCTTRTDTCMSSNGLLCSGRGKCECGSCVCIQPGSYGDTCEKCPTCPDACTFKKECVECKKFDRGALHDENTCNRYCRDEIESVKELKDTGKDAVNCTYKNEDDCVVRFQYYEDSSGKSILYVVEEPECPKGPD

Take “SEQ ID NO: 51: VKKX tag, amino acid sequence VKKTKTTTKK (VKKX Tag)”: the “Biosynthesis amount of fusion protein” value is recorded as 6.29 in assay [1] and 15.28 in assay [2].
On to “SEQ ID NO: 47: VKKX tag, amino acid sequence VKKTKTKKDK (VKKX Tag)”, for which the “Biosynthesis amount of fusion protein” value in assay [1] turned out to be 8.90; in assay [2], 15.53.
As to “SEQ ID NO: 46: VKKX tag, amino acid sequence VKKTKTKKTK (VKKX Tag)”, the figures for the “Biosynthesis amount of fusion protein” value in assay [1] and in assay [2] were 9.94 and 23.47, respectively.
In the case of “SEQ ID NO: 40: VKKX tag, amino acid sequence VKKTKTKDK (VKKX Tag)”, the “Biosynthesis amount of fusion protein” value in assay [1] came out at 8.49; in assay [2], 10.77.
“SEQ ID NO: 36: VKKX tag, amino acid sequence VKKTKTKKT (VKKX Tag)”: the “Biosynthesis amount of fusion protein” value is 10.50 in assay [1] and 13.13 in assay [2].
On to “SEQ ID NO: 34: VKKX tag, amino acid sequence VKKTKTTT (VKKX Tag)”, for which the “Biosynthesis amount of fusion protein” value stood at 6.69 in assay [1] and 8.59 in assay [2].
With “SEQ ID NO: 45: VKKX tag, amino acid sequence VKKTKTTKD (VKKX Tag)”, the results for the “Biosynthesis amount of fusion protein” value in assay [1] and in assay [2] were 7.83 and 10.61, respectively.
For the molecule “SEQ ID NO: 39: VKKX tag, amino acid sequence VKKTKTKTT (VKKX Tag)”, the “Biosynthesis amount of fusion protein” value was determined as 7.22 in assay [1] and 7.57 in assay [2].
As for “SEQ ID NO: 43: VKKX tag, amino acid sequence VKKTKTTKK (VKKX Tag)”, the “Biosynthesis amount of fusion protein” value in assay [1] was 9.45; in assay [2], 23.35.
For “SEQ ID NO: 28: VKKX tag, amino acid sequence VKKTKTT (VKKX Tag)”, in that order: 6.28 and 16.65.
For “SEQ ID NO: 41: VKKX tag, amino acid sequence VKKTKTKDT (VKKX Tag)”, in that order: 6.27 and 28.80.
In the same order, the values of “SEQ ID NO: 31: VKKX tag, amino acid sequence VKKTKTKT (VKKX Tag)” are 9.08 and 15.48.

B1: chemically synthesized integrin binding peptide (SEQ ID NO: 126) (peptide)
peptide: CEPRGDNYRK(ClAc)GGSKKK
notes: Immobilized on a CM5 chip by amine coupling; also called CEPRGDNYRXGGSKKK
Consider B1, for which, in assay [3], the Kd is 7.6 nM.

What is called Kd is a measure of binding affinity in units of concentration.
